Data from paper PMC2737711 (The Journal of neuroscience : the official journal of the …, 2009).

Legend:
rat KCC2 = biological target: T1, rat KCC2 (Rattus norvegicus, UniProt Q63633); experiment: […] influx into Xenopus oocytes; assay type: cell-based; conditions: hypotonic medium, 79 mM chloride, 2 mM RbCl; 0.01 mM ouabain; inhibitor
T1 sequence (Q63633 1-1139): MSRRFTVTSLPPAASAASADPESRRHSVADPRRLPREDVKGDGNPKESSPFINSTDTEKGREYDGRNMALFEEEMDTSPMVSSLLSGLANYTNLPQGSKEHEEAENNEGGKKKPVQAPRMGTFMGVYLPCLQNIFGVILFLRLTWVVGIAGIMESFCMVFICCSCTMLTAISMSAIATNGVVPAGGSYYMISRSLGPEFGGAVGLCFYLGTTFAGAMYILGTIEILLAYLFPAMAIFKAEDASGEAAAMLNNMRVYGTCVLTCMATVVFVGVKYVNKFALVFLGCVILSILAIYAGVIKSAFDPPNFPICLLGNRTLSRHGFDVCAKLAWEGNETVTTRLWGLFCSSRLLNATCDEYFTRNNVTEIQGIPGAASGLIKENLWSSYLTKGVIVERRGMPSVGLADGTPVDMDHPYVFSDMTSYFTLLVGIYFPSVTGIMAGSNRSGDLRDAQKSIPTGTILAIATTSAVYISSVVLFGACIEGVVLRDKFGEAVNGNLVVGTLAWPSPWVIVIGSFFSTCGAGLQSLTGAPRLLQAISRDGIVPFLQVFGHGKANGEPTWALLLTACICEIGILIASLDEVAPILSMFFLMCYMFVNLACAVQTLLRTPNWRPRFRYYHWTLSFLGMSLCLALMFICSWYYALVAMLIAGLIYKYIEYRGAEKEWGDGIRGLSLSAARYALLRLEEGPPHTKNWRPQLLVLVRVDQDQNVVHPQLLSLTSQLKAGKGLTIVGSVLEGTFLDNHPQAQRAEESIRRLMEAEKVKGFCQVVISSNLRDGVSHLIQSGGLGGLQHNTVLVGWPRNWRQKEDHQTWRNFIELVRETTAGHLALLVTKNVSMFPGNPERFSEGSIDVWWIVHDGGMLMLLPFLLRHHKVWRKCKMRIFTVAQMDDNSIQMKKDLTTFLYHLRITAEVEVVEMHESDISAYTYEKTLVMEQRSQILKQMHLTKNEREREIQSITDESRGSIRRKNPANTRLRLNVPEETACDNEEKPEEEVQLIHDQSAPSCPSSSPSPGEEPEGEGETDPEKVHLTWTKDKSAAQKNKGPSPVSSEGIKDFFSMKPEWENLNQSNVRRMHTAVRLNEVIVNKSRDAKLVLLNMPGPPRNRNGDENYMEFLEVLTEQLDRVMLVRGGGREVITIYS

C. elegans KCC-2 = biological target: T2, C. elegans KCC-2 (Caenorhabditis elegans, UniProt G5EEC9); experiment: […] influx into Xenopus oocytes; assay type: cell-based
T2 sequence (G5EEC9 1-1079): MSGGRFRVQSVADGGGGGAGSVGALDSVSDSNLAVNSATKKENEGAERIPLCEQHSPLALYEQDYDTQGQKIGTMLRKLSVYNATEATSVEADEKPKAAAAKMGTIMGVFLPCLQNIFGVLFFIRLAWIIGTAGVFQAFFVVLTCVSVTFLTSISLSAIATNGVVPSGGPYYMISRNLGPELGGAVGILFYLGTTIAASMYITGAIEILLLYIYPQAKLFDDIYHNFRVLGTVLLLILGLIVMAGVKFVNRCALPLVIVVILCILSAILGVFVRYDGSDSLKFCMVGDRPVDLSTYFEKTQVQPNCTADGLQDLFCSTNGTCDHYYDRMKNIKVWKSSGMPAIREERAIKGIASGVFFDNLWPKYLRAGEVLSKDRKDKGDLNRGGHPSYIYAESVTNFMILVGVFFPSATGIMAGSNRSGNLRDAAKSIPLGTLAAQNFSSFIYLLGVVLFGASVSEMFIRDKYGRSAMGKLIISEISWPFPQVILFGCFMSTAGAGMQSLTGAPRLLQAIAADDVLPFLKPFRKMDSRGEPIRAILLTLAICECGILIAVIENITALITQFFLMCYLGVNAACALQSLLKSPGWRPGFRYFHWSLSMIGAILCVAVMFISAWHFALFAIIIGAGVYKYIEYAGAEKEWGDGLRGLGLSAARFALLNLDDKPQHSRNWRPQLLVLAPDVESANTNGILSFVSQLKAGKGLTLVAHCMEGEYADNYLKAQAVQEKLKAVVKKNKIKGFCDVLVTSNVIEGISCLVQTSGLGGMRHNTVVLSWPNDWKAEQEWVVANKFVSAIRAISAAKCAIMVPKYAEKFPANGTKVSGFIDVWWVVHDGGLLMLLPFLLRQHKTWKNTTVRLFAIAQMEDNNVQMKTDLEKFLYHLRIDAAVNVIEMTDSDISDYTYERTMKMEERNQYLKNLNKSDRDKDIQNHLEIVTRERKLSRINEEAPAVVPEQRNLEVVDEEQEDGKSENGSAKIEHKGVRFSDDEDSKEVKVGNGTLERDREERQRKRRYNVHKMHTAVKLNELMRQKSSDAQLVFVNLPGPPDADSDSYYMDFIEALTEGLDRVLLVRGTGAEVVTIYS

Molecule `CCCCNc1cc(C(=O)O)cc(S(N)(=O)=O)c1Oc1ccccc1` [bumetanide] has an IC50 (rat KCC2) of 72 ± 16 µM and an IC50 (C. elegans KCC-2) of 32 ± 3 µM.
